Data from PMC5407577, “Functional and genetic evidence that nucleoside transport is highly conserved in Leishmania species: Implications for pyrimidine-based chemotherapy” (International Journal for Parasitology: Drugs and Drug …, 2017).
Like-named read-outs stand apart in the source and are kept apart here.

Assays:
LmajUUT1 = assay: [3H]-uridine uptake by L. major promastigotes, high-affinity uracil-sensitive component; format: cell-based, Leishmania major; details: inhibition of 0.25 μM [3H]-uridine uptake
Procedure: (§1) Using the standard uptake technique as described for T. brucei and Leishmania species ([Wallace et al., 2002], [Al-Salabi and De Koning, 2005], [Gudin et al., 2006]), the dose- or time-dependent uptake of radiolabeled permeants was investigated.
(§2) Briefly, cells in the mid-to-late logarithmic stage of growth were harvested by centrifugation for 10 min at 1500×g. The cells were washed twice with transport assay buffer (AB: 33 mM HEPES, 98 mM NaCl, 4.6 mM KCl, 0.55 mM CaCl2, 0.07 mM MgSO4, 5.8 mM NaH2PO4, 0.3 mM MgCl2, 23 mM NaHCO3, 14 mM glucose, pH 7.3), resuspended at a density of 10^8 cells ml^−1 in AB, and left for 20–30 min at room temperature to recover from centrifugation stress. One hundred microliters of cell suspension was incubated at ambient temperature for a predetermined time with 100 μl radiolabeled test compound, in the presence or absence of unlabeled substrate or other competitive inhibitors. The incubation was terminated by the addition of ice-cold stop solution (AB containing saturating levels, usually 10 mM, of unlabeled permeant) and centrifugation through oil for 1 min at 13,000 × g. […] Radioactivity was determined by liquid scintillation counting in a Beckman LS6000 TA scintillation counter. Saturation data, inhibition data, and time courses were plotted to equations for linear or non-linear regression (hyperbolic or sigmoid curves), as appropriate. All experiments were performed in triplicate and on at least three independent occasions.

LmajNT1 [1] = assay: [3H]-uridine uptake by L. major promastigotes, low-affinity component; format: cell-based, Leishmania major; details: inhibition of 0.25 μM [3H]-uridine uptake
Procedure: as §1, §2

LmexUU1 = format: cell-based, Leishmania mexicana; details: for Ki: inhibition of [3H]-uracil uptake, 4 min
Procedure: as §1, §2

LmajNT1 [2] = assay: [3H]-thymidine uptake by L. major promastigotes; format: cell-based, Leishmania major
Procedure: as §1, §2
Subsequent experiments were performed with a 5 min incubation time.

Lmex5F2′dURes = assay: microbe, parasite or virus in culture; format: cell-based, Leishmania mexicana
Procedure: (§3) Sensitivity assays of Leishmania strains to various drugs using the viability dye resazurin (Alamar Blue) (Sigma-Aldrich) were performed using a protocol adapted from [Räz et al. (1997)], as described ([Al-Salabi et al., 2003], [Gould et al., 2008]). Pentamidine and diminazene were used as non-nucleoside controls and were obtained from Sigma-Aldrich, as were many purines, pyrimidines, and analogs, with the exceptions of 2-thiouridine and 4-thiouridine (TriLink BioTechnologies, San Diego, CA); 5′-deoxyuridine, and 2′-3′-dideoxyuridine (Carbosynth, Compton, UK); 5-fluoro-2′-deoxyuridine (Fluka); and 2-thiouracil (ICN Biomedicals, Cambridge, UK). A preliminary promastigote culture was diluted to a density of 2 × 10^6 cells/ml, of which 100 μl was added to wells of 96-well plates pre-loaded with 100 μl of doubling dilutions of test compounds, resulting in a final density of 1 × 10^6 cells/ml; the dilutions were over 2 rows of the plate (23 concentrations), with the last well containing only medium and serving as the no-drug control. The plates were incubated at 25 °C for 72 h before adding the Alamar Blue dye (20 μl of 12.5 mg resazurin sodium salt (Sigma) in 100 ml phosphate buffered saline (PBS; pH 7.4)). Since Leishmania parasites metabolize the Alamar Blue dye slower than trypanosomes ([Gould et al., 2008]), the cells were incubated with the dye for a further period of 48 h before measuring the fluorescence, using a FLUOstar Optima fluorimeter (BMG Labtech) at wavelengths of 544 nm for excitation and 620 nm for emission. […] Each experiment was performed independently at least 4 times; statistical significance was determined using Student's unpaired t-test.

Lmex5FURes = assay: microbe, parasite or virus in culture; format: cell-based, Leishmania mexicana
Procedure: as §3

Lmaj5FURes = assay: microbe, parasite or virus in culture; format: cell-based, Leishmania major
Procedure: as §3

Lmaj5F2′dURes = assay: microbe, parasite or virus in culture; format: cell-based, Leishmania major
Procedure: as §3

LmexNT1 [3] = format: cell-based, Leishmania mexicana; details: inhibition of 0.25 μM [3H]-uridine uptake in the presence of 1 mM uracil
Procedure: as §1, §2

L. major promastigotes [4] = assay: metabolomic analysis of treated L. major promastigotes; format: cell-based, Leishmania major; details: 100 μM, 8 h
Procedure: (§4) Metabolomics analysis of the Leishmania promastigotes was undertaken in triplicate, exactly as described ([Ali et al., 2013a]). Briefly, cells were grown to log phase stage, resuspended at 2 × 10^6 cells/ml in 50 ml HOMEM/FBS and incubated 8 h with 100 μM of test compound (standard conditions) before transfer to a 50-ml centrifuge tube for instantaneous cooling (dry ice/ethanol bath, 4 °C) and centrifugation (2500 rpm, 10 min, 4 °C). The pellet was lysed with 200 μl of chloroform/methanol/water (1:3:1 v/v/v) containing mass spectrometry standards, and vigorous mixing (1 h, 4 °C); cell debris was removed by centrifugation and the metabolite extracts were stored in HPLC vials at −80 °C. Control samples were prepared in parallel and included untreated cells, unused growth medium, test compound solution and extraction solvent blanks. The analysis used a hydrophilic interaction liquid chromatography (HILIC-LC) fitted with a zwitterionic ZIC-pHILIC column (Merck Sequant), coupled to high resolution mass spectrometry (MS) using a Thermo Q-Exactive, and metabolomic data outputs were analyzed using the IDEOM application (http://mzmatch.sourceforge.net/ideom.php) with default parameters ([Creek et al., 2012]) exactly as described ([Ali et al., 2013a]). The lower limit of detection was set to 500 intensity units for all reported metabolites, in order to prevent spurious identification of low level signals.
(§5) The mechanism of action of the fluorinated pyrimidines was investigated using a metabolomics approach, where promastigotes of L. mexicana and L. major were incubated for 8 h with 100 μM of either 5-FU, 5F-2′dUrd or 5F-Urd prior to metabolite extraction and mass spectrometric analysis as described ([Ali et al., 2013a], [Alkhaldi et al., 2015]). These conditions were chosen to allow for significant metabolite accumulation while not affecting cell viability or growth rate, which could broadly affect metabolite levels.

[5] = test system: L. mexicana promastigotes; assay: metabolomic analysis of treated L. mexicana promastigotes; format: cell-based, Leishmania mexicana; details: 100 μM, 8 h
Procedure: as §4, §5

[6] = test system: L. mexicana promastigotes WT; assay: Alamar blue drug sensitivity assay, L. mexicana WT; format: cell-based, Leishmania mexicana; details: Leishmania mexicana, 72 h, WT promastigotes, 72 h + 48 h with dye; n ≥ 4; read-out: EC50
Procedure: as §3

[7] = test system: L. major promastigotes WT; assay: Alamar blue drug sensitivity assay, L. major WT; format: cell-based, Leishmania major; details: Leishmania major, 72 h, WT promastigotes, 72 h + 48 h with dye; n ≥ 4; read-out: EC50
Procedure: as §3

L. major promastigotes [8] = assay: total [3H]-uridine uptake by L. major promastigotes; format: cell-based, Leishmania major; details: Leishmania major, 3 h; read-out: partial (maximal) inhibition of 0.25 μM [3H]-uridine transport
Procedure: as §1, §2

LmexNT1 [9] = assay: [3H]-adenosine uptake by L. mexicana promastigotes; format: cell-based, Leishmania mexicana; details: inhibition of 0.05 μM [3H]-adenosine uptake; read-out: Ki
Text: Using the standard uptake technique as described for T. brucei and Leishmania species ([Wallace et al., 2002], [Al-Salabi and De Koning, 2005], [Gudin et al., 2006]), the dose- or time-dependent uptake of radiolabeled permeants was investigated. The following radiolabels and specific activities were used: [^3H]-thymidine (Perkin Elmer; 56.6 Ci/mmol); [^3H]-adenosine (American Radiolabeled Chemicals UK; 40 Ci/mmol); [^3H]-uridine (American Radiolabeled Chemicals UK; 30 Ci/mmol); [^3H]-uracil (Perkin Elmer; 24.8 Ci/mmol); [^3H]-inosine (American Radiolabeled Chemicals UK; 20 Ci/mmol); [^3H]-5-fluorouracil (Moravek; 20 Ci/mmol).
as §2
We next investigated the transport of [^3H]-adenosine in L. mexicana promastigotes, which according to the efficient inhibition of [^3H]-thymidine by adenosine, should be taken up with high affinity.

LmexNT1 [10] = format: cell-based, Leishmania mexicana; details: for rate of uptake: 1 μM [3H]-thymidine
Procedure: as §1, §2
L. donovani is known to express one pyrimidine nucleoside transporter, LdNT1, which also transports adenosine ([Vasudevan et al., 1998], [De Koning et al., 2005]). In order to investigate whether this model held true for L. mexicana, the uptake of [^3H]-thymidine was studied. […] Care was taken throughout this study that whenever inhibition constants (Ki) or Michaelis-Menten constants (Km) were determined the conditions used had been verified to be well within the linear range of uptake.

[11] = inhibition of 0.25 μM [3H]-thymidine uptake (total LmajNT1.1 + LmajNT1.2), 5 min
[12] = n = 3, SEM, untreated: not detected (<500)

O=c1ccn([C@H]2C[C@H](O)[C@@H](CO)O2)c(=O)[nH]1 [2′-deoxyuridine]
Ki (LmajUUT1): 24.9 ± 8.6 µM
Ki (LmajNT1 [1]): 24.9 ± 8.6 µM
Ki (LmexUU1): 9.3 ± 2.6 µM
maximal inhibition of [3H]-uracil transport (LmexUU1; n = 3): approximately 85%
Ki (LmajNT1 [2]; [11]): 112 ± 17 µM

O=c1[nH]c(=O)n([C@H]2C[C@H](O)[C@@H](CO)O2)cc1F [5F-2′dUrd, 5-Fluoro-2′-deoxyuridine]
EC50 (Lmex5F2′dURes; Leishmania mexicana): > 5000 µM
RF (Resistance Factor = IC50 (resistant clone)/IC50 (WT)) (Lmex5F2′dURes; Lmex5F2′dURes vs L. mexicana WT): >3500
EC50 (Lmex5FURes; Leishmania mexicana): 1.5 ± 0.2 µM
RF (Resistance Factor = IC50 (resistant clone)/IC50 (WT)) (Lmex5FURes; Lmex5FURes vs L. mexicana WT): 1.07
EC50 (Lmaj5FURes; Leishmania major): 6.1 ± 0.5 µM
RF (Resistance Factor = IC50 (resistant clone)/IC50 (WT)) (Lmaj5FURes; Lmaj5FURes vs L. major WT): 3.6
EC50 (Lmaj5F2′dURes; Leishmania major): 381 ± 83 µM
RF (Resistance Factor = IC50 (resistant clone)/IC50 (WT)) (Lmaj5F2′dURes; Lmaj5F2′dURes vs L. major WT): 224
Ki (LmexNT1 [3]): 6.99 ± 0.11 µM
dCMP peak intensity (L. major promastigotes [4]; [12]): not detected
dUrd peak intensity (L. major promastigotes [4]; untreated: 712 ± 105): 7615 ± 1236^∗ arbitrary units
dCTP peak intensity (L. major promastigotes [4]; untreated: 995 ± 109): 7036 ± 1684 arbitrary units
dAdo peak intensity (L. major promastigotes [4]; untreated: 2992 ± 173): 14181 ± 3275 arbitrary units
dAMP peak intensity (L. major promastigotes [4]; untreated: 6192 ± 910): 14740 ± 2815 arbitrary units
dADP peak intensity (L. major promastigotes [4]; untreated: not detected): 6493 ± 3261 arbitrary units
dCDP peak intensity (L. major promastigotes [4]; untreated: not detected): 6617 ± 188^∗∗∗ arbitrary units
dTTP intensity ([5]; detection limit 500 units (Fig. 13F)): Not detectable
dCMP peak intensity [5, 12]: 6006 ± 3089 arbitrary units
dUrd peak intensity ([5]; untreated: 304 ± 155): 5414 ± 717^∗ arbitrary units
dADP peak intensity ([5]; untreated: 1458): 8367 ± 1844^∗ arbitrary units
dAdo peak intensity ([5]; untreated: 2585 ± 811): 5412 ± 1699 arbitrary units
dCDP peak intensity ([5]; untreated: not detected): 4451 ± 1188^∗ arbitrary units
dCTP peak intensity ([5]; untreated: not detected): 1569 ± 244 arbitrary units
EC50 [6]: ~1.5 µM
Ki (LmajNT1 [2]): 29.7 ± 2.1 µM
EC50 [7]: ~1.5 µM

Nc1ncnc2[nH]cnc12 [adenine]
Ki (LmajUUT1): 5.14 ± 2.25 µM
inhibition at 0.25 µM (L. major promastigotes [8]): 62.7 ± 1.7%
Ki (LmajNT1 [1]): > 1000 µM
Ki (LmexNT1 [3]): > 1000 µM
Ki (LmexUU1): 288 ± 67 µM
Ki (LmajNT1 [2]; [11]): > 1000 µM
Ki (LmexNT1 [9]): > 1000 µM

Cc1cn([C@H]2C[C@H](O)[C@@H](CO)O2)c(=O)[nH]c1=O [thymidine]
rate of uptake (LmexNT1 [10]; linear over 30 s (Fig. 1A)): 0.082 ± 0.005 pmol(10^7 cells)^−1s^−1
rate of uptake (LmexNT1 [10]; over 2 min (Fig. 1B)): 0.051 ± 0.002 pmol(10^7 cells)^−1s^−1
Vmax (LmexNT1 [10]; [3H]-thymidine): 1.53 ± 0.28 pmol(10^7 cells)^−1s^−1
Km (LmexNT1 [10]; [3H]-thymidine, n = 3): 11.2 ± 2.4 µM
Ki (LmajUUT1): 60.9 ± 8.4 µM
Ki (LmajNT1 [1]): 60.9 ± 8.4 µM
Ki (LmexNT1 [3]): 9.98 ± 2.67 µM
Vmax (1) (LmajNT1 [2]; [3H]-thymidine, high affinity component): 0.023 ± 0.003 pmol(10^7 cells)^−1s^−1
Km (LmajNT1 [2]; [3H]-thymidine, high affinity component, Lineweaver-Burke plot, n = 5, read-out: Km (1)): 4.2 ± 1.09 µM
Vmax (2) (LmajNT1 [2]; [3H]-thymidine, lower affinity component): 0.14 ± 0.03 pmol(10^7 cells)^−1s^−1
Km (LmajNT1 [2]; n = 5, read-out: average Km from Michaelis-Menten saturation plots (single-component fit)): 30.7 ± 2.1 µM
Km (LmajNT1 [2]; single experiment shown in Fig. 5C, read-out: apparent Km, higher affinity component): 1.26 µM
Km (LmajNT1 [2]; single experiment shown in Fig. 5C, read-out: apparent Km, lower affinity component): 17.1 µM
Ki (LmexNT1 [9]): 16.5 ± 0.4 µM
